Laboratory results taken from US20080214509A1, “Methods for enhancing the efficacy of vascular disrupting agents” (priority 2007, published 2008).

Assays:
CEPs = test: Circulating endothelial progenitor cell (CEP) levels in peripheral blood by flow cytometry, non-tumor bearing mice; type: in vivo; settings: non-tumor bearing Balb/c mice; AMD-3100 5 mg/kg, CA1P 100 mg/kg; 4 hours or 24 hours post-treatment; FIG. 1
Description: Non-tumor bearing Balb/c mice (8-10 weeks old) were treated with one of the following agents: (i) 5 mg/kg of AMD-3100, a specific CXCR-4 antagonist; (ii) 100 mg/kg of CA1P, a VDA; or (iii) a combination of AMD-3100 and CA1P. At either 4 hours or 24 hours post-treatment, mice were bled from the retro-orbital sinus to evaluate levels of CEPs by flow cytometry.

[1] = tested on: MeWo human melanoma cells; test: MeWo melanoma tumors (500 mm^3) in nude mice: SDF-1/CXCR4 staining, necrosis, hypoxia, perfusion; type: in vivo; settings: day 4
Description: MeWo human melanoma cells were implanted subdermally in nude mice. When tumors reached 500 mm^3, treatment with CA1P, AMD-3100 or the combination of the two drugs was initiated. CA1P was given as a single injection and AMD-3100 was given in a concentration of 5 mg/kg for 3 sequential days. On day 4, mice were sacrificed and tumors harvested for evaluation of the expression of human SDF-1 and mouse CXCR4, as well as tumor necrosis, hypoxia and vessel perfusion.
Longitudinal tumor sections were stained for either SDF-1 or mouse CXCR4 expression.
FIG. 2 provides a statistical quantification of the relative necrosis area in all tumors from treated and untreated mice. Hypoxic tumor area and perfused tumor area was also measured for all treated and untreated tumors using pimonidazole and Hoechst staining respectively (see FIG. 3).

SDF-1 [2] = test: Plasma SDF-1 by ELISA in nude mice after VDA treatment; type: in vivo; settings: both tumor-free and 500 mm^3 MeWo tumor-bearing nude mice; 4 hours after treatment
Description: To investigate the possibility that systemic induction of SDF-1 is involved in the acute mobilization of CEPs by VDA treatment, plasma from non-tumor or 500 mm^3 MeWo human melanoma bearing nude mice obtained 4 hours after treatment with CA1P was analyzed for human and mouse SDF-1 using specific ELISAs. From this analysis, it was determined that an acute 2 fold increase in SDF-1 occurs in both tumor-free and tumor-bearing nude mice following CA1P treatment. […] Thus, there is a rapid host proangiogenic reaction in response to VDA treatment similar to that observed in mice.

[3] = tested on: Lewis-Lung Carcinoma (LLC) cells; test: Lewis-Lung Carcinoma tumors in irradiated mice transplanted with GFP+ bone marrow: necrosis and bone marrow cell incorporation; type: in vivo; settings: LLC tumors in C57Bl mice with GFP+ bone marrow; day 4
Description: To assess the incorporation of bone marrow proangiogenic cells to the tumor site, Lewis-Lung Carcinoma (LLC) cells were implanted into the flanks of lethally irradiated C57Bl mice that were previously transplanted with GFP+bone marrow tagged cells. When tumors reached 500 mm^3, treatment with CA1P, AMD-3100 or the combination of the two was initiated. AMD-3100 was given in a concentration of 5 mg/kg for 3 sequential days. On day 4, mice were sacrificed and tumors removed for the evaluation of bone marrow derived cell (GFP+ cells) invasion and incorporation into tumor blood vessels (CD31+ cells). Tumors were also evaluated for necrosis by green fluorescence, as necrotic tissue is auto-fluorescent under GFP (fluorescent) channel.

SDF-1 [4] = test: Clinical data from cancer patients with advanced solid tumors treated with a VDA; type: in vivo, human; settings: 12 cancer patients with advanced solid tumors; 4 hours after treatment
[5] = MeWo tumors, CA1P single injection, AMD-3100 5 mg/kg for 3 sequential days

Structure (SMILES) | CEP levels in peripheral blood (CEPs) | human SDF-1 levels in tumors ([1]; MeWo tumor sections) | invasion of mouse CXCR4+ cells to the tumor site ([1]; MeWo tumor sections) | tumor hypoxia (pimonidazole staining) [1, 5] [%] | tumor necrosis (area of total tumor area) [1, 5] [%] | tumor perfusion (Hoechst staining) [1, 5] [%] | increase in plasma SDF-1 (SDF-1 [2]) [fold] | bone marrow derived (GFP+) cell homing to tumor site and incorporation into tumor blood vessels (CD31+) [3] | circulating SDF-1 plasma levels (SDF-1 [4]) | number of CD133 and CD34 positive cells (SDF-1 [4])
c1cc(CN2CCCNCCNCCCNCC2)ccc1CN1CCCNCCNCCCNCC1 [AMD-3100, 1,1′-[1,4-phenylenebis(methylene)]-bis-1,4,8,11-tetra-azacyclotetradecane] | rapid and significant increases | – | – | – | – | – | – | – | – | –
COc1cc(/C=C\c2ccc(OC)c(OP(=O)(O)O)c2OP(=O)(O)O)cc(OC)c1OC [CA1P, combretastatin A-1 diphosphate] | rapid and significant increases | upregulation | invasion of mouse CXCR4+ cells to the tumor site | ~12 | ~30 | ~7 | 2 | recruits bone marrow derived proangiogenic cells to tumors | – | –
COc1ccc(/C=C\c2cc(OC)c(OC)c(OC)c2)cc1OP(=O)(O)O [CA4P, combretastatin A-4 phosphate] | – | – | – | – | – | – | – | – | substantially increased | substantially increased
